# Reference: ChEMBL document CHEMBL4619828, “Discovery of Potent and Orally Bioavailable Small Molecule Antagonists of Toll-like Receptors 7/8/9 (TLR7/8/9)” (ACS Med Chem Lett, 2020)
# pIC50: −log10 of the molar value.
# Key:
# Toll-like receptor 4 = Toll-like receptor 4 (Homo sapiens, UniProt O00206); assay: Antagonist activity at human TLR4 overexpressed in HEK-Blue cells assessed as inhibition of […] induced NFkappaB and AP-1 activation preincubated for 30 mins followed by […] stimulation measured after 22 hrs by quanti-blue SEAP assay; assay type: cell-based
# Toll-like receptor 4, sequence (O00206 whole entry): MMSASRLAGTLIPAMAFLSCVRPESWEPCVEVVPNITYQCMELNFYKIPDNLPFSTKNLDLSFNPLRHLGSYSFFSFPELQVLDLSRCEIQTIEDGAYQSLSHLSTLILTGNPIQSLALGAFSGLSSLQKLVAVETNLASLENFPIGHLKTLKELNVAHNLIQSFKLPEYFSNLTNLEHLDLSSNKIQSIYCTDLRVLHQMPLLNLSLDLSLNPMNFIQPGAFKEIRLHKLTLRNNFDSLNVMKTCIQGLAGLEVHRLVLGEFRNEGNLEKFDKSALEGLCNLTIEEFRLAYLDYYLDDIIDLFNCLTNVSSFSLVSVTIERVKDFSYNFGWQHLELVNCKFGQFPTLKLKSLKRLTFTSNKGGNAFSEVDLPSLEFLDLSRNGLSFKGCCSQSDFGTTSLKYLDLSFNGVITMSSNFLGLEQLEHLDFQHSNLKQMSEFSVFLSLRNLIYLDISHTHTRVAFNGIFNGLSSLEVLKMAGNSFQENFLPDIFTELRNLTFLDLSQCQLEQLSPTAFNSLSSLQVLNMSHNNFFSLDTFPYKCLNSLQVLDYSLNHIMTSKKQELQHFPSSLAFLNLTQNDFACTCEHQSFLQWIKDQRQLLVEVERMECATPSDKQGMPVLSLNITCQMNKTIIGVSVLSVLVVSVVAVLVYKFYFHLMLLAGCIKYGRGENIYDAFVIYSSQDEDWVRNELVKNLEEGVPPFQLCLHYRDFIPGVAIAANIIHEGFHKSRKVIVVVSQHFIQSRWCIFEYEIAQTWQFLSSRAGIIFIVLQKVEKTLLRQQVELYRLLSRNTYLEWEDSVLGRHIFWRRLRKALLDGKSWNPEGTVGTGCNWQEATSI
# Toll-like receptor 7 = molecular target: T1, Toll-like receptor 7 (Mus musculus, UniProt P58681); assay: Antagonist activity at TLR7 in mouse whole blood cells assessed as inhibition of gardiquimod induced IL-6 production by ELISA; assay type: cell-based
# T1 sequence (P58681 whole entry): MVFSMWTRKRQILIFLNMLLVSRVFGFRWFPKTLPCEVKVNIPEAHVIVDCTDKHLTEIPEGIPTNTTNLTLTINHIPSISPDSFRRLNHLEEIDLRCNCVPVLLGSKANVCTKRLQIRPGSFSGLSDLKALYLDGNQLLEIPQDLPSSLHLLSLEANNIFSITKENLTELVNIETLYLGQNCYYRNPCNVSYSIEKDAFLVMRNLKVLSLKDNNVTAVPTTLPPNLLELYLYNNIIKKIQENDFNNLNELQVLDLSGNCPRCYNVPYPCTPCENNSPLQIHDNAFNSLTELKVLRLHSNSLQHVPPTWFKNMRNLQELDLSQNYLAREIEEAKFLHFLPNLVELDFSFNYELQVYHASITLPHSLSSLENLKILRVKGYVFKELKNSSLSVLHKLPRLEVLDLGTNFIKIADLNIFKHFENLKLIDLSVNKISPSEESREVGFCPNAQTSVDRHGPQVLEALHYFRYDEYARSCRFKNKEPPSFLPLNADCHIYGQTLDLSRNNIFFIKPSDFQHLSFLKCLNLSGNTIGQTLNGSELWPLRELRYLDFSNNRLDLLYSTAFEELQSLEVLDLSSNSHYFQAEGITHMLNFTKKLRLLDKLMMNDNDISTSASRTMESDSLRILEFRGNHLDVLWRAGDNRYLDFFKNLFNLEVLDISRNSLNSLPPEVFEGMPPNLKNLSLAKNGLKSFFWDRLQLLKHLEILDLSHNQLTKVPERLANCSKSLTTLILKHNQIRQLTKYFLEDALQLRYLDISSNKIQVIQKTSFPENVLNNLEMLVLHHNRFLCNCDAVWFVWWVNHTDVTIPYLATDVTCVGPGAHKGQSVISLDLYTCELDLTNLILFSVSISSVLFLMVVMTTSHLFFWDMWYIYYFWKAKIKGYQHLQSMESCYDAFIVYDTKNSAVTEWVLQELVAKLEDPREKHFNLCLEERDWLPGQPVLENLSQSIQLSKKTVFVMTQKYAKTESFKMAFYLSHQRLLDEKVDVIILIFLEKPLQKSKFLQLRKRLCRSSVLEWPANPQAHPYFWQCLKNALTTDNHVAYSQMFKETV
# [1] = Oral bioavailability in mouse at 15 mg/kg; assay type: ADME, organism-based; settings: in vivo
# [2] = Tmax in mouse at 15 mg/kg, po; assay type: ADME, organism-based; settings: in vivo
# Toll-like receptor 3 = molecular target: T2, Toll-like receptor 3 (Homo sapiens, UniProt O15455); assay: Antagonist activity at human TLR3 overexpressed in HEK-Blue cells assessed as inhibition of Poly IC-induced NFkappaB and AP-1 activation preincubated for 30 mins followed by Poly IC stimulation measured after 22 hrs by quanti-blue SEAP assay; assay type: cell-based
# T2 sequence (O15455 whole entry): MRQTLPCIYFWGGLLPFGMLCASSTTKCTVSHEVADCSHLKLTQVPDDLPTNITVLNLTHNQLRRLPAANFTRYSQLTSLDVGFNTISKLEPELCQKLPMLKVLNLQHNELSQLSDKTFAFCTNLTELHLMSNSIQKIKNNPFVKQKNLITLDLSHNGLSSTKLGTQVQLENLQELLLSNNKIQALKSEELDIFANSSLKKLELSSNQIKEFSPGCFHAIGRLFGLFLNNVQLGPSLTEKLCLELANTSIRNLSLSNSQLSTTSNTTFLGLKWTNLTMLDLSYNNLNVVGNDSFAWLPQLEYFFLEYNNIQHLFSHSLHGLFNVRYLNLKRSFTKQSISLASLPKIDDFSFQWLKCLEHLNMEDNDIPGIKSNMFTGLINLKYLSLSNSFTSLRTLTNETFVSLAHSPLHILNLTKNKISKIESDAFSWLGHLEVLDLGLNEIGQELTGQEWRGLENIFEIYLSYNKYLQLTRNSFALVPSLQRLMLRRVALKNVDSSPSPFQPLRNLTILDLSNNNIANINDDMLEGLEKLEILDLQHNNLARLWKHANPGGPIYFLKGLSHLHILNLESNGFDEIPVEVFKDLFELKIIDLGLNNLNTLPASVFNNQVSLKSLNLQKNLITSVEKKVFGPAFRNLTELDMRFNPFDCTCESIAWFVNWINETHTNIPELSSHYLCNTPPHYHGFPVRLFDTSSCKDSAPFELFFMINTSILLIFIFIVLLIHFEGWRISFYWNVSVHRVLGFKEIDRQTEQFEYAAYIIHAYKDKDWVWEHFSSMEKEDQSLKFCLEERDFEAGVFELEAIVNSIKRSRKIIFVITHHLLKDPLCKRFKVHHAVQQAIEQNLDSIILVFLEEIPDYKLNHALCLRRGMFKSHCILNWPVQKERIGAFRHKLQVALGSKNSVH
compound,measurement,setting,value
CNCCN1CCC(c2ccc3[nH]c(-c4ccc(OC)c(OC)c4)c(C(C)C)c3c2)CC1,pIC50,Toll-like receptor 4,4.82
same,pIC50,Toll-like receptor 7,7.37
same,bioavailability,[1],62%
same,Tmax,[2],30 min
same,pIC50,Toll-like receptor 3,5.26
